Test results reported in paper PMC9698773, “Design, Synthesis, Molecular Modeling, and Anticancer Evaluation of New VEGFR-2 Inhibitors Based on the Indolin-2-One Scaffold” (Pharmaceuticals, 2022).

How the values were obtained:
[1] = tested on: MCF-7 cell line; assay: MTT cytotoxicity assay, MCF-7; type: cell-based, human; conditions: for IC50: Homo sapiens, MCF7, MTT assay, mean ± SD of three experiments; for fold more potent than sunitinib, MCF-7: ratio of IC50 to sunitinib
Protocol: (§1) The cytotoxic activities against breast MCF-7 and liver HepG2 cancer cell lines for all the synthesized compounds 3a,b–17a,b were evaluated by MTT-based cytotoxicity assay. Sunitinib was selected as a reference standard in this study, and the results are presented as IC50 in Table 1.
(§2) The anticancer activities of the target compounds 3a,b–17a,b were quantitatively assessed using the MTT protocol against the MCF-7 and HepG2 cell lines, as described in the Supplementary Materials. […]
(§3) 4.2. Biological investigation
(§4) 4.2.1. In vitro cytotoxic activity assay
(§5) Citation: Abdelgawad, M.A.; Cell Line cells were obtained from the American Type Culture Collection. The cells Hayallah A.M.; Bukhari S.N.A.; were cultured using DMEM (Invitrogen/Life Technologies) supplemented with 10% FBS Musa A.; Elmowafy M.; (Hyclone,), 10 ug/ml of insulin (Sigma), and 1% penicillin‐streptomycin. All of the other Abdel‐Rahman, H.M.; chemicals and reagents were from Sigma or Invitrogen. Plate cells (cells density 1.2 – 1.8 Abd El‐Gaber, M.K. Design, × 10,000 cells/well) in a volume of 100μl complete growth medium + 100 μl of the tested Synthesis, Molecular Modeling, and compound per well in a 96‐well plate for 24 hours before the MTT assay. The tested com‐ Anticancer Evaluation of New pounds were dissolved in DMSO just before the test.
(§6) VEGFR‐2 Inhibitors Based on the Indolin‐2‐One Scaffold. 4.2.1.1. Cell culture protocol
(§7) Pharmaceuticals 2022, 15, x. The culture medium was removed to a centrifuge tube. The cell layer was briefly https://doi.org/10.3390/xxxxx rinsed with 5 mL of 0.25% (w/v) Trypsin and 3 mL of 0.53 mM EDTA solution to remove Academic Editor(s): Mary J. Meegan all traces of serum which contains Trypsin inhibitor. Next, 2.0 to 3.0 ml of Trypsin EDTA Received: 18 October 2022 solution was added to the flask and cells were observed under an inverted microscope Accepted: 9 November 2022 until the cell layer was dispersed (usually within 5 to 15 minutes). Then, 6.0 to 8.0 mL of Published: 14 November 2022 complete growth medium was added and cells aspirated by gently pipetting. The cell suspension was transferred to the centrifuge tube with the medium and cells from step 1, Publisher’s Note: MDPI stays neu‐and centrifuged at approximately 125 xg for 5 to 10 minutes. The supernatant was dis‐ tral with regard to jurisdictional carded and the cell pellet was suspended in fresh growth medium. Appropriate aliquots claims in published maps and institu‐ of the cell suspension were added to new culture vessels and incubated at 37°C for 24 hrs. tional affiliations. After treatment of cells with the serial concentrations of the compound to be tested, incu‐ bation was carried out for 48 h at 37 °C. The plates were examined under an inverted mi‐ croscope and proceeded for the MTT assay […]
(§8) Submitted for possible open access 4.2.1.2. […]
(§9) HepG‐2) were used in this test. At first, the cell lines were cultured in RPMI‐1640 medium Pharmaceuticals 2022, 15, x. https://doi.org/10.3390/xxxxx. www.mdpi.com/journal/pharmaceuticals […]
(§10) Pharmaceuticals 2022, 15, x FOR PEER REVIEW 2 of 22 with 10% fetal bovine serum. Antibiotics (100 units/ml penicillin and100 μg/ml strepto‐ mycin) were added at 37 °C in a 5% CO2 incubator. The cell lines were seeded in a 96‐well plate at a density of 1.0 x 10^4 cells / well at 37 °C for 48 h under 5% CO2. After incubation, the cells were treated with different concentrations of the synthesized compounds and incubated for 24 h. After 24 h of drug treatment, 20 μl of MTT solution (5mg/ml) was added and incubated for 4 h. 100 μl of dimethyl sulfoxide (DMSO) was added into each well to dissolve the formed purple formazan. The colored solution was measured and recorded at an absorbance of 570 nm using a plate reader (EXL 800, USA). The relative cell viability was calculated in percentage as (A570 of treated samples/A570 of untreated sam‐ ple) X 100. The half maximal inhibitory concentration (IC50) values were presented using […]

[2] = tested on: HepG2 cell line; assay: MTT cytotoxicity assay, HepG2; type: cell-based, human; conditions: mean ± SD of three experiments
Protocol: as §1, §2, §3, §4, §5, §6, §7, §8, §9, §10

[3] = target: VEGFR-2 (Homo sapiens, UniProt P35968); assay: In vitro VEGFR-2 kinase inhibitory assay (VEGFR2 (KDR) Kinase Assay Kit)
VEGFR-2, sequence (P35968 20-1356): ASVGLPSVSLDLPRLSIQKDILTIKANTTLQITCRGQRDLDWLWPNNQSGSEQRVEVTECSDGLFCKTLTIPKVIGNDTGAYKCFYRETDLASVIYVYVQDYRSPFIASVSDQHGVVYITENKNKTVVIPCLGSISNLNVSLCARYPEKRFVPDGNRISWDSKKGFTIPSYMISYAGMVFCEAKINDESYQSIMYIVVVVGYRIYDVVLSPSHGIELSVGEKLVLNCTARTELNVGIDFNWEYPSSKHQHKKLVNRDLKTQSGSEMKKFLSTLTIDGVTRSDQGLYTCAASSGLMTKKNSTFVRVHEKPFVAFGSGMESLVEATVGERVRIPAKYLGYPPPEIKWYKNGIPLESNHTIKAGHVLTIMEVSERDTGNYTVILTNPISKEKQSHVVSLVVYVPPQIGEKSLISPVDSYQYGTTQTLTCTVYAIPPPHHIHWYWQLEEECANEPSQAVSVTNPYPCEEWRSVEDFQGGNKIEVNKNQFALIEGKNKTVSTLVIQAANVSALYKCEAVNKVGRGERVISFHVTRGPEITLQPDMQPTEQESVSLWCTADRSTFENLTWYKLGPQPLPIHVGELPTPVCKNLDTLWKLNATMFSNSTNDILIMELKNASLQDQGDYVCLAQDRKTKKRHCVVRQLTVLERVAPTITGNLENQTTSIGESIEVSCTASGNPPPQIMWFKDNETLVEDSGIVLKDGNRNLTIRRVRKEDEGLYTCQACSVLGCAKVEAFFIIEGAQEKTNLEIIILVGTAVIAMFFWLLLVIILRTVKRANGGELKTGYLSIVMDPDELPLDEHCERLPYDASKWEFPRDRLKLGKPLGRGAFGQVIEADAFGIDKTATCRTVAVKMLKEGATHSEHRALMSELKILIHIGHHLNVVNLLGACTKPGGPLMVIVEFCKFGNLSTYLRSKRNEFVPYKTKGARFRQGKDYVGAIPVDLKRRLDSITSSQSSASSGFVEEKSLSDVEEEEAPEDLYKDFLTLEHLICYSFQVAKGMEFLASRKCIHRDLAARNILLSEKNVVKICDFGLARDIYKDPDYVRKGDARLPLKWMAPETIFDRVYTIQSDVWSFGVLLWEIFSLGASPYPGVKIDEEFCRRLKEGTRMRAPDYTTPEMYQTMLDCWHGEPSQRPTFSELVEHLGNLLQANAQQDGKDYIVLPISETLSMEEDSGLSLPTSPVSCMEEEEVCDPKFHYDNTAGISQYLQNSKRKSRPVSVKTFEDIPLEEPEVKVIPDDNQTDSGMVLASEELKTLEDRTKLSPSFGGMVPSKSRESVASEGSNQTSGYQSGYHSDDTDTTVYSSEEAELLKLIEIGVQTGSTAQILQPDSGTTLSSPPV
Protocol: In vitro VEGFR‐2 kinase inhibitory assay
for their inhibitory activity against VEGFR‐2. Human BPS bioscience® VEGFR2 (KDR) Ki‐ nase Assay Kit (Enzyme‐Linked Immunosorbent Assay) was utilized in this test. The lu‐ minescent signal from the assay is correlated with the amount of ATP present and is in‐ versely correlated with the amount of kinase activity. The compounds were diluted to 100 μM in 10% DMSO and 5 ml of the diluted solution was added to a 50 ml reaction so that the final concentration of DMSO was 1% in all of reactions. All of the enzymatic reactions were conducted at 30 °C for 40 min. The 50 μl reaction mixture contains 40 μM Tris, pH 7.4, 10 μM MgCl2, 0.1 mg/ml BSA, 0.2 mg/ml Poly (Glu, Tyr) substrate, 10 μM ATP, and VEGFR‐2. After the enzymatic reaction, 50 ml of Kinase‐GloPlus Luminescence kinase as‐ say solution (Promega) was added to each reaction and the plate was incubated for 5 min at room temperature. Luminescence signal was measured using a BioTek Synergy 2 mi‐ croplate reader. The protein kinase assays used to determine IC50 values were performed using a ADP‐GloTM assay kit from Promega, which measures the generation of ADP by the protein kinase. Generation of ADP by the protein kinase reaction leads to an increase in luminescence signal in the presence of the ADP‐GloTM assay kit. The assay was started by incubating the reaction mixture in a 96‐well plate at 30 °C for 30 min. After the 30 mi n incubation period, the assay was terminated by the addition of 25 ml of ADP‐GloTM Re‐ agent (Promega). The 96‐well plate was shaken and then incubated for 40 min at ambient temperature; 50 ml of Kinase detection reagent was added, the 96‐well reaction plate wa s then read using the ADP‐Glo Luminescences Protocol on a GloMax plate reader (Promega: Catalog #E7031). The blank control was set up which included all the assay components, except the addition of appropriate substrates (replaced with equal volume of kinase assay buffer). The corrected activity for each protein kinase target was deter‐ mined by removing the blank control value. IC50 determination for inhibitor against VEGFR‐2 was estimated by generating a graph of log inhibitor vs normalized response with variables.

[4] = tested on: HepG2 cells; set-up: method as in PMID 29901131; conditions: HepG2 liver cancer cells; cited from earlier work

CNC(=S)NNC(=O)c1ccc(N=C2C(=O)Nc3ccccc32)cc1 [Compound 5a, N-Methyl-2-(4-((2-oxoindolin-3-ylidene)amino)benzoyl)hydrazinecarbothioamide]
IC50 [1]: 6.42 ± 0.55 µM
IC50 ([2]; Homo sapiens, HepG2, MTT assay): 5.48 ± 0.27 µM
melting point: 249 to 251 °C

O=C1Nc2ccc(F)cc2/C1=N/c1ccc(C(=O)O)cc1 [Compound 3b]
IC50 [1]: 43.9 ± 2.1 µM
IC50 ([2]; Homo sapiens, HepG2, MTT assay): 51.2 ± 2.5 µM

O=C1Nc2ccc(F)cc2C1=Nc1ccc(C(=O)NN2C(=O)c3ccccc3C2=O)cc1 [Compound 12b, N-(1,3-Dioxoisoindolin-2-yl)-4-((5-fluoro-2-oxoindolin-3-ylidene)amino)benzamide]
IC50 [1]: 33.8 ± 1.7 µM
IC50 ([2]; Homo sapiens, HepG2, MTT assay): 23.5 ± 1.15 µM
melting point: 225 to 227 °C

CNC(=S)NNC(=O)c1ccc(N=C2C(=O)Nc3ccc(F)cc32)cc1 [Compound 5b, 2-(4-((5-Fluoro-2-oxoindolin-3-ylidene)amino)benzoyl)-N-methylhydrazinecarbothioamide]
IC50 [1]: 0.99 ± 0.04 µM
fold more potent than sunitinib, MCF-7 [1]: 5 fold
IC50 ([2]; Homo sapiens, HepG2, MTT assay): 2.62 ± 0.13 µM
melting point: 252 to 254 °C
IC50 [3]: 0.16 ± 0.008 µM

CCOC(=O)c1ccc(/N=C2\C(=O)Nc3ccc(F)cc32)cc1 [Compound 7b]
IC50 [1]: 3.81 ± 0.2 µM
IC50 ([2]; Homo sapiens, HepG2, MTT assay): 2.23 ± 0.11 µM

O=C1Nc2ccccc2C1=Nc1ccc(C(=O)NN=Cc2ccc(Cl)cc2)cc1 [Compound 10b, N′-(4-Chlorobenzylidene)-4-((2-oxoindolin-3-ylidene)amino)benzohydrazide]
IC50 [1]: 23.8 ± 1.21 µM
IC50 ([2]; Homo sapiens, HepG2, MTT assay): 33.8 ± 1.65 µM
melting point: 237 to 239 °C

Cc1ccc(C=NNC(=O)c2ccc(N=C3C(=O)Nc4ccccc43)cc2)cc1 [Compound 10d, N′-(4-Methylbenzylidene)-4-((2-oxoindolin-3-ylidene)amino)benzohydrazide]
IC50 [1]: 13.7 ± 0.4 µM
IC50 ([2]; Homo sapiens, HepG2, MTT assay): 21.4 ± 1.05 µM
melting point: 234 to 236 °C

O=C1Nc2ccc(F)cc2C1=Nc1ccc(-c2n[nH]c(=S)o2)cc1 [Compound 15b, 5-Fluoro-3-((4-(5-thioxo-4,5-dihydro-1,3,4-oxadiazol-2-yl)phenyl)imino)indolin-2-one]
IC50 [1]: 19.6 ± 1.8 µM
IC50 ([2]; Homo sapiens, HepG2, MTT assay): 12.7 ± 0.62 µM
melting point: 231 to 233 °C

NNC(=O)c1ccc(/N=C2\C(=O)Nc3ccc(F)cc32)cc1 [Compound 8b]
IC50 [1]: 40.7 ± 2.8 µM
IC50 ([2]; Homo sapiens, HepG2, MTT assay): 53.9 ± 2.63 µM

CN(C)c1ccc(C=NNC(=O)c2ccc(N=C3C(=O)Nc4ccc(F)cc43)cc2)cc1 [Compound 10f, N′-(4-(Dimethylamino)benzylidene)-4-((5-fluoro-2-oxoindolin-3-ylidene)amino)benzohydrazide]
IC50 [1]: 11 ± 0.59 µM
IC50 ([2]; Homo sapiens, HepG2, MTT assay): 19.2 ± 0.94 µM
melting point: 202 to 204 °C

O=C1Nc2ccccc2/C1=N/c1ccc(C(=O)O)cc1 [Compound 3a]
IC50 [1]: 51.6 ± 2.5 µM
IC50 ([2]; Homo sapiens, HepG2, MTT assay): 62.4 ± 2.61 µM

CCN(CC)CCNC(=O)c1c(C)[nH]c(/C=C2\C(=O)Nc3ccc(F)cc32)c1C [Sunitinib, reference compound]
IC50 [1]: 4.77 ± 0.29 µM
IC50 ([2]; Homo sapiens, HepG2, MTT assay): 2.23 ± 0.11 µM

O=C1Nc2ccccc2C1=Nc1ccc(C(=O)NN=Cc2ccc([N+](=O)[O-])cc2)cc1 [Compound 10a, N′-(4-Nitrobenzylidene)-4-((2-oxoindolin-3-ylidene)amino)benzohydrazide]
IC50 [1]: 40 ± 2 µM
IC50 ([2]; Homo sapiens, HepG2, MTT assay): 8.24 ± 0.4 µM
melting point: 220 to 222 °C

NNC(=O)c1ccc(/N=C2\C(=O)Nc3ccccc32)cc1 [Compound 8a]
IC50 [1]: 27.2 ± 1.3 µM
IC50 ([2]; Homo sapiens, HepG2, MTT assay): 24.9 ± 1.21 µM

O=C1Nc2ccc(F)cc2C1=Nc1ccc(C(=O)NNC(=S)Nc2ccccc2)cc1 [Compound 17b, 2-(4-((5-Fluoro-2-oxoindolin-3-ylidene)amino)benzoyl)-N-phenylhydrazinecarbothioamide]
IC50 [1]: 25.8 ± 1.3 µM
IC50 ([2]; Homo sapiens, HepG2, MTT assay): 9.81 ± 0.48 µM
melting point: 203 to 205 °C

O=C1Nc2ccccc2C1=Nc1ccc(C(=O)NN2C(=O)c3ccccc3C2=O)cc1 [Compound 12a, N-(1,3-Dioxoisoindolin-2-yl)-4-((2-oxoindolin-3-ylidene)amino)benzamide]
IC50 [1]: 78.4 ± 3.81 µM
IC50 ([2]; Homo sapiens, HepG2, MTT assay): 130 ± 6.37 µM
melting point: 187 to 189 °C

CCOC(=O)c1ccc(/N=C2\C(=O)Nc3ccccc32)cc1 [Compound 7a]
IC50 [1]: 14.9 ± 0.7 µM
IC50 ([2]; Homo sapiens, HepG2, MTT assay): 10.9 ± 0.53 µM

O=C1Nc2ccc(F)cc2C1=Nc1ccc(C(=O)NN=Cc2ccc(Br)cc2)cc1 [Compound 10g, N′-(4-Bromobenzylidene)-4-((5-fluoro-2-oxoindolin-3-ylidene)amino)benzohydrazide]
IC50 [1]: 0.74 ± 0.03 µM
fold more potent than sunitinib, MCF-7 [1]: 6 fold
IC50 ([2]; Homo sapiens, HepG2, MTT assay): 2.79 ± 0.14 µM
melting point: 227 to 229 °C
IC50 [3]: 0.087 ± 0.004 µM
fold more potent than sunitinib, VEGFR-2 inhibition ([3]; ratio of IC50 to sunitinib): 1.6 fold

CCOC(=O)CC(C)=NNC(=O)c1ccc(N=C2C(=O)Nc3ccc(F)cc32)cc1 [Compound 14b, Ethyl 3-(2-(4-((5-Fluoro-2-oxoindolin-3-ylidene)amino)benzoyl)hydrazono)butanoate]
IC50 [1]: 32.9 ± 1.61 µM
IC50 ([2]; Homo sapiens, HepG2, MTT assay): 13.8 ± 0.67 µM
melting point: 213 to 215 °C

O=C1Nc2ccccc2C1=Nc1ccc(-c2n[nH]c(=S)o2)cc1 [Compound 15a, 3-((4-(5-Thioxo-4,5-dihydro-1,3,4-oxadiazol-2-yl)phenyl)imino)indolin-2-one]
IC50 [1]: 2.77 ± 0.1 µM
IC50 ([2]; Homo sapiens, HepG2, MTT assay): 2.3 ± 0.18 µM
IC50 ([2]; MTT assay): 2.3 ± 0.18 µM
melting point: 219 to 220 °C
IC50 [3]: 0.18 ± 0.009 µM

COc1ccc(C=NNC(=O)c2ccc(N=C3C(=O)Nc4ccccc43)cc2)cc1 [Compound 10e, N′-(4-Methoxybenzylidene)-4-((2-oxoindolin-3-ylidene)amino)benzohydrazide]
IC50 [1]: 4.62 ± 0.2 µM
IC50 ([2]; Homo sapiens, HepG2, MTT assay): 8.81 ± 0.43 µM
melting point: 239 to 240 °C
IC50 [3]: 0.358 ± 0.019 µM

CCOC(=O)CC(C)=NNC(=O)c1ccc(N=C2C(=O)Nc3ccccc32)cc1 [Compound 14a, Ethyl 3-(2-(4-((2-oxoindolin-3-ylidene)amino)benzoyl)hydrazono)butanoate]
IC50 [1]: 7.37 ± 0.4 µM
IC50 ([2]; Homo sapiens, HepG2, MTT assay): 10.3 ± 0.81 µM
melting point: 206 to 208 °C

O=C1Nc2ccccc2C1=Nc1ccc(C(=O)NN=Cc2cccc([N+](=O)[O-])c2)cc1 [Compound 10c, N′-(3-Nitrobenzylidene)-4-((2-oxoindolin-3-ylidene)amino)benzohydrazide]
IC50 [1]: 14.6 ± 0.71 µM
IC50 ([2]; Homo sapiens, HepG2, MTT assay): 21 ± 1.02 µM
melting point: 200 to 201 °C

CNC(=O)c1cc(Oc2ccc(NC(=O)Nc3ccc(Cl)c(C(F)(F)F)c3)cc2)ccn1 [Sorafenib]
phase of cell cycle arrest [4]: S phase and G2/M phase
